Reference: PubChem BioAssay AID330 (DTP/NCI, 2004)
Values joined by “and” are separate entries in the source; they are usually repeats but may differ in a detail not shown here. Identical values can stand only once. Inconclusive results and toxic doses are left out. How the source made its calls: active means survival T/C of 150% or more; inactive means T/C below 125% in these data.

Test system: P388 leukemia ip, CD2F1 mice, survival T/C
Assay: NCI In Vivo Anticancer Drug Screen. Data for tumor model P388 Leukemia (intraperitoneal) in CD2F1 (CDF1) mice
Settings: endpoint: median survival time, higher = longer survival
Summary of the method: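 Mice carrying the transplanted tumor received test compound or vehicle. Survival was recorded in each group, and the value is the treated-group measurement divided by that of the vehicle-treated control group.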

[1] = dose: 50.0 mg/kg/injection, schedule: Q01DX009 (ip), vehicle: saline with Tween-80
[2] = dose: 100.0 mg/kg/injection, schedule: Q01DX009 (ip), vehicle: saline with Tween-80
[3] = dose: 50.0 mg/kg/injection, schedule: Q01DX009 (ip), vehicle: Klucel (hydroxypropylcellulose) (HPC)
[4] = dose: 100.0 mg/kg/injection, schedule: Q01DX009 (ip), vehicle: Klucel (hydroxypropylcellulose) (HPC)
[5] = dose: 200.0 mg/kg/injection, schedule: Q01DX009 (ip), vehicle: Klucel (hydroxypropylcellulose) (HPC)
[6] = dose: 50.0 mg/kg/injection, schedule: Q01DX005 (ip), vehicle: saline with Tween-80
[7] = dose: 100.0 mg/kg/injection, schedule: Q01DX005 (ip), vehicle: saline with Tween-80
[8] = dose: 200.0 mg/kg/injection, schedule: Q01DX005 (ip), vehicle: saline with Tween-80
[9] = dose: 60.0 mg/kg/injection, schedule: Q01DX005 (ip), vehicle: saline with Tween-80
[10] = dose: 120.0 mg/kg/injection, schedule: Q01DX005 (ip), vehicle: saline with Tween-80
[11] = dose: 240.0 mg/kg/injection, schedule: Q01DX005 (ip), vehicle: saline with Tween-80
[12] = dose: 50.0 mg/kg/injection, schedule: Q01DX009 (ip), vehicle: saline
[13] = dose: 100.0 mg/kg/injection, schedule: Q01DX009 (ip), vehicle: saline
[14] = dose: 200.0 mg/kg/injection, schedule: Q01DX009 (ip), vehicle: saline with Tween-80

Measured: T/C

O=C(O)C(O)C1CCCCC1 (configuration not stated)
inactive: [1] 104 % of control | [2] 92 % of control

OC1(c2ccncc2)C=CCC1 (configuration not stated)
inactive: dose: 100.0 mg/kg/injection, schedule: Q04DX002 (ip), vehicle: saline with Tween-80 95 % of control

NC(=O)c1[nH]c(/N=N/c2nc[nH]c2C(N)=O)nc1N
inactive: [3] 99 % of control | [4] 99 % of control | [5] 93 % of control

CCn1c(=O)[nH]c(=O)c2[nH]c(Cl)nc21
inactive: dose: 16.0 mg/kg/injection, schedule: Q01DX009 (ip), vehicle: Klucel (hydroxypropylcellulose) (HPC) 103 % of control | dose: 25.0 mg/kg/injection, schedule: Q01DX009 (ip), vehicle: Klucel (hydroxypropylcellulose) (HPC) 105 % of control | dose: 32.0 mg/kg/injection, schedule: Q01DX009 (ip), vehicle: Klucel (hydroxypropylcellulose) (HPC) 107 % of control | [3] 91 % of control | dose: 64.0 mg/kg/injection, schedule: Q01DX009 (ip), vehicle: Klucel (hydroxypropylcellulose) (HPC) 102 % of control | [4] 93 % of control

CC(C1CC2(C)OC2(CO)C(=O)O1)C1CCC2C3CC4OC45C(O)C4OC4C(=O)C5(C)C3CCC12C (configuration not stated)
inactive: dose: 5.0 mg/kg/injection, schedule: Q01DX005 (ip), vehicle: Klucel (hydroxypropylcellulose) (HPC) 96 % of control | dose: 10.0 mg/kg/injection, schedule: Q01DX005 (ip), vehicle: Klucel (hydroxypropylcellulose) (HPC) 100 % of control | dose: 20.0 mg/kg/injection, schedule: Q01DX005 (ip), vehicle: Klucel (hydroxypropylcellulose) (HPC) 96 % of control | dose: 40.0 mg/kg/injection, schedule: Q01DX005 (ip), vehicle: Klucel (hydroxypropylcellulose) (HPC) 92 % of control | dose: 80.0 mg/kg/injection, schedule: Q01DX005 (ip), vehicle: Klucel (hydroxypropylcellulose) (HPC) 89 % of control

CCCCCCCCCCNCCSSCc1ccccc1
inactive: dose: 12.5 mg/kg/injection, schedule: Q04DX002 (ip), vehicle: Klucel (hydroxypropylcellulose) (HPC) 100 % of control | dose: 25.0 mg/kg/injection, schedule: Q04DX002 (ip), vehicle: Klucel (hydroxypropylcellulose) (HPC) 100 % of control | dose: 50.0 mg/kg/injection, schedule: Q04DX002 (ip), vehicle: Klucel (hydroxypropylcellulose) (HPC) 109 % of control | dose: 100.0 mg/kg/injection, schedule: Q04DX002 (ip), vehicle: Klucel (hydroxypropylcellulose) (HPC) 105 % of control

C=CCC12CC(C)OC1=Nc1ccccc1NC2=O (configuration not stated)
inactive: [6] 98 % of control | [7] 100 % of control | [8] 104 % of control

OC1(C(O)(c2ccc(-c3ccccc3)cc2)c2ccc(-c3ccccc3)cc2)CCCCC1
inactive: [6] 90 % of control | [7] 87 % of control

O=C1CC2CCC1(CS(=O)(=O)OCCCCOS(=O)(=O)CC13CCC(CC1=O)C3)C2
inactive: [9] 103 % of control | [10] 103 % of control | [11] 93 % of control

c1nc(N2CCCCC2)c2c3c(sc2n1)CCCC3
inactive: [6] 100 % of control | [7] 91 % of control | [8] 96 % of control

N#CC1(c2ccccc2)CCN(c2c3ccccc3nc3ccccc23)CC1
inactive: dose: 100.0 mg/kg/injection, schedule: Q04DX003 (ip), vehicle: Klucel (hydroxypropylcellulose) (HPC) 103 % of control and 110 % of control | dose: 200.0 mg/kg/injection, schedule: Q04DX003 (ip), vehicle: Klucel (hydroxypropylcellulose) (HPC) 109 % of control and 112 % of control | dose: 400.0 mg/kg/injection, schedule: Q04DX003 (ip), vehicle: Klucel (hydroxypropylcellulose) (HPC) 117 % of control and 123 % of control

OCCCCCCCCCCCCCC1C=CCC1 (configuration not stated)
inactive: dose: 100.0 mg/kg/injection, schedule: Q01DX001 (ip), vehicle: saline 104 % of control | dose: 200.0 mg/kg/injection, schedule: Q01DX001 (ip), vehicle: saline 100 % of control | dose: 400.0 mg/kg/injection, schedule: Q01DX001 (ip), vehicle: saline 100 % of control

Nc1ccc[nH]c1=O
inactive: dose: 12.5 mg/kg/injection, schedule: Q01DX009 (ip), vehicle: saline 100 % of control and 113 % of control | dose: 25.0 mg/kg/injection, schedule: Q01DX009 (ip), vehicle: saline 103 % of control | [12] 98 % of control and 103 % of control | [13] 103 % of control and 113 % of control | dose: 400.0 mg/kg/injection, schedule: Q01DX009 (ip), vehicle: saline 100 % of control

C#CC(O)C1CC1 (configuration not stated)
inactive: dose: 100.0 mg/kg/injection, schedule: Q01DX001 (ip), vehicle: saline + Tween-80 + alcohol 101 % of control

NC(/N=C/c1cc(Cl)cc(Cl)c1O)=N\S(=O)(=O)c1ccc(N=Cc2cc(Cl)cc(Cl)c2O)cc1
inactive: [1] 98 % of control | [2] 91 % of control | [14] 98 % of control

O=C1c2cc(O)c(O)cc2C(=O)c2cc3c(cc21)OCO3
inactive: [9] 97 % of control | [10] 90 % of control | [11] 90 % of control

NC(=O)C[C@H](NP(=S)(c1ccccc1)c1ccccc1)C(=O)O
inactive: [3] 102 % of control | [4] 98 % of control | [5] 110 % of control

N#Cc1c(-c2ccccc2)sc2ccccc2c1=O
inactive: dose: 100.0 mg/kg/injection, schedule: Q01DX001 (ip), vehicle: saline with Tween-80 99 % of control | dose: 200.0 mg/kg/injection, schedule: Q01DX001 (ip), vehicle: saline with Tween-80 93 % of control | dose: 400.0 mg/kg/injection, schedule: Q01DX001 (ip), vehicle: saline with Tween-80 98 % of control

c1ccc([Se][Se]c2ccccn2)nc1
inactive: dose: 6.25 mg/kg/injection, schedule: Q01DX005 (ip), vehicle: Klucel (hydroxypropylcellulose) (HPC) 101 % of control | dose: 12.5 mg/kg/injection, schedule: Q01DX005 (ip), vehicle: Klucel (hydroxypropylcellulose) (HPC) 103 % of control | dose: 25.0 mg/kg/injection, schedule: Q01DX005 (ip), vehicle: Klucel (hydroxypropylcellulose) (HPC) 101 % of control

CN1OC(=O)OC2(CCCCC2)C1=O
inactive: dose: 50.0 mg/kg/injection, schedule: Q01DX005 (ip), vehicle: saline 96 % of control | dose: 100.0 mg/kg/injection, schedule: Q01DX005 (ip), vehicle: saline 99 % of control | dose: 200.0 mg/kg/injection, schedule: Q01DX005 (ip), vehicle: saline 96 % of control

O=C(N/C(=C\c1ccccc1)C(=O)N1CCNCC1)c1ccccc1
inactive: [6] 93 % of control | [7] 89 % of control | [8] 87 % of control

CC1(NC(=O)N(CCCl)N=O)CCCC1
inactive: dose: 25.0 mg/kg/injection, schedule: Q01DX009 (ip), vehicle: saline with Tween-80 104 % of control | [1] 104 % of control | dose: 50.0 mg/kg/injection, schedule: Q04DX003 (ip), vehicle: saline with Tween-80 100 % of control | [2] 109 % of control | dose: 100.0 mg/kg/injection, schedule: Q04DX003 (ip), vehicle: saline with Tween-80 100 % of control

C#CCOCC1CO1 (configuration not stated)
inactive: [12] 110 % of control | [13] 110 % of control | dose: 200.0 mg/kg/injection, schedule: Q01DX009 (ip), vehicle: saline 115 % of control

N#Cc1c(N)nc2c(c1N)CCO2
inactive: [1] 93 % of control | [2] 96 % of control | [14] 99 % of control

O=C1c2ccccc2CN(c2ccccc2)C(=Nc2ccccc2)N1c1ccccc1
inactive: [6] 95 % of control | [7] 93 % of control | [8] 95 % of control

COc1ccc(/C=N/N2CN(C(C)C(=O)O)P(Nc3ncccn3)N=C2N)cc1OC (configuration not stated)
inactive: dose: 60.0 mg/kg/injection, schedule: Q01DX005 (ip), vehicle: saline 104 % of control | dose: 120.0 mg/kg/injection, schedule: Q01DX005 (ip), vehicle: saline 103 % of control | dose: 240.0 mg/kg/injection, schedule: Q01DX005 (ip), vehicle: saline 108 % of control
